Experimental findings from ChEMBL document CHEMBL1126835, “QSAR's from similarity matrices. Technique validation and application in the comparison of different similarity evaluation methods” (J Med Chem, 1993) are described below.

Data set [1] is described as follows: Dissociation constant (pKa). The format is physicochemical.
The target of data set [2] is T1, Corticosteroid-binding globulin (Homo sapiens) (UniProt P08185).
T1 sequence (whole entry): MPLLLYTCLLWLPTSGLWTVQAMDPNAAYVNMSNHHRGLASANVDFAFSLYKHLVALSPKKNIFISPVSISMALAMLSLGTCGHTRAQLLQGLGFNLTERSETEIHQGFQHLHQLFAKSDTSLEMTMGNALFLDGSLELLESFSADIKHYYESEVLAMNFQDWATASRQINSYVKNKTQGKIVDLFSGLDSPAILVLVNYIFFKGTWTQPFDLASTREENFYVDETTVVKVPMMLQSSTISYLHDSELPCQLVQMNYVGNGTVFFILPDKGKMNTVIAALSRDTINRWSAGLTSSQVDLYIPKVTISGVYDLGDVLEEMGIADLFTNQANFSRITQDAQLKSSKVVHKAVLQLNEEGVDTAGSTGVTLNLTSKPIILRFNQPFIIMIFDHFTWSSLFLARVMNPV
Description: Binding affinity towards human corticosteroid binding globulin.

Data set [3] deals with T2, Sex hormone-binding globulin (Homo sapiens) (UniProt P04278).
T2 sequence (whole entry): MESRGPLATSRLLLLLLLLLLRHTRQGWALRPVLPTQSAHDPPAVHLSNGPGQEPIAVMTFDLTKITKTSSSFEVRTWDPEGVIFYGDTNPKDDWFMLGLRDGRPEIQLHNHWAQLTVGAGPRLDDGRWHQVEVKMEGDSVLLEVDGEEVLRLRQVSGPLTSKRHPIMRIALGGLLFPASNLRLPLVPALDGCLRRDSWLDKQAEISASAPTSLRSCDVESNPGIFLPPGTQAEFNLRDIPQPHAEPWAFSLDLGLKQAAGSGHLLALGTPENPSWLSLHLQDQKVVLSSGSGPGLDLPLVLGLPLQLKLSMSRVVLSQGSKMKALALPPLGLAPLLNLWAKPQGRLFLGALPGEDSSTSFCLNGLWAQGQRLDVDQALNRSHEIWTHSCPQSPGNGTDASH
Description: Binding affinity towards human testosterone binding globulin.

For data set [4], the target named is T3, Monoamine oxidase (Homo sapiens, UniProt P21397+P27338).
T3 sequence (P21397 whole entry): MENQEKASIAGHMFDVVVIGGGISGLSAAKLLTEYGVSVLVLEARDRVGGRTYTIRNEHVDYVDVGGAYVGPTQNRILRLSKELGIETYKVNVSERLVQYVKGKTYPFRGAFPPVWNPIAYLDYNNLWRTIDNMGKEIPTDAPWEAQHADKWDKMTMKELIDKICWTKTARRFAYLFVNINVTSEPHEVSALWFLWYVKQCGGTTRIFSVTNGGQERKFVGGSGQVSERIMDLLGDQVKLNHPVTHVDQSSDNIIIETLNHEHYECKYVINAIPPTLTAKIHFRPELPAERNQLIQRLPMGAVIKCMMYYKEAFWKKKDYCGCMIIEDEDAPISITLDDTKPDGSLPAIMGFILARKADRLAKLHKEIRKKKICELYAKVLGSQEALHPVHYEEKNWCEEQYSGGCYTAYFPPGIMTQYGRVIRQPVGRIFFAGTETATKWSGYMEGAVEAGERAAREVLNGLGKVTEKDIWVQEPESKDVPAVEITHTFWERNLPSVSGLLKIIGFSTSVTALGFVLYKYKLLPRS
T3 sequence (P27338 whole entry): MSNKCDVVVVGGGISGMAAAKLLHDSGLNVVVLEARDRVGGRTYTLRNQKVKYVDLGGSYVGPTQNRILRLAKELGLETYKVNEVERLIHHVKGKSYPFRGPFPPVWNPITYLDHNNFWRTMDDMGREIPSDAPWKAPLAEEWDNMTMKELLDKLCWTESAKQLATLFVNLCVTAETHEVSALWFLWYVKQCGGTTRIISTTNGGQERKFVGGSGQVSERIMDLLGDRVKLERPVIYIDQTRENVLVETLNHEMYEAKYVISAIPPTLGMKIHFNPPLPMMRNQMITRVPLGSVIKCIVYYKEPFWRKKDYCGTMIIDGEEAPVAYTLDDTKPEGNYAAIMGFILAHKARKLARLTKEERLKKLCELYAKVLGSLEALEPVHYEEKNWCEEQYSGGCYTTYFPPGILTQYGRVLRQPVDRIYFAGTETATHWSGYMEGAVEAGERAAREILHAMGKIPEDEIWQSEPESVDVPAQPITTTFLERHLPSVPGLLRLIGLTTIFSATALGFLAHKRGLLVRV
The experiment in a line: Binding affinity towards monoaminooxidase Relative to MPTP. The format is protein assay.

A word on the pKa: it is the negative logarithm of the acid dissociation constant. High values mean a weaker acid or stronger base, low ones a stronger acid or weaker base. `NC1NC=CN1` gave a pKa in data set [1] of 8.46.

As for `C[C@]12CCC(=O)C=C1CC[C@@H]1[C@@H]2[C@@H](O)C[C@@]2(C)[C@H]1CC[C@]2(O)C(=O)CO`, the values for the Log 1/K in data set [2] and in data set [3] were -7.88 and -6.2, respectively.

Regarding `C[C@]12CCC(=O)C=C1CC[C@@H]1[C@@H]2C(=O)C[C@@]2(C)[C@H]1CC[C@]2(O)C(=O)CO`, the Log 1/K in data set [2] is -6.89; in data set [3] it was -6.43.

For `C[C@]12CCC(=O)C=C1CC[C@@H]1[C@@H]2CC[C@]2(C)C(=O)CC[C@@H]12`, the Log 1/K in data set [2] is -5.76; in data set [3] it was -7.46.

On to `CC(=O)[C@H]1CC[C@H]2[C@@H]3CC=C4C[C@@H](O)CC[C@]4(C)[C@H]3CC[C@]12C`, for which the results for the Log 1/K in data set [2] and in data set [3] were -5.22 and -7.15, respectively.

For the compound `CC(=O)[C@@]1(O)CC[C@H]2[C@@H]3CC=C4C[C@@H](O)CC[C@]4(C)[C@H]3CC[C@@]21C`, the values for the Log 1/K in data set [2] and in data set [3] were -5 and -6.36, respectively.

As for `CN1C=CNC1`, the pKa in data set [1] was found to be 7.12.

With `FC1NC=CN1`, the pKa in data set [1] was 2.4.

Consider `C1=CNC(c2ccncc2)N1`, for which the pKa in data set [1] was found to be 5.36.

`C1=CNC(c2ccccc2)N1` yielded a pKa in data set [1] of 6.48.

In data set [1], `O=[N+]([O-])C1NC=CN1` yielded a pKa of -0.81.

Consider `C[C@]12CCC(=O)C=C1CCC1C3CC[C@H](C(=O)CO)[C@@]34C[C@H](OC4O)C12` (stereo partly specified), for which the Log 1/K is -6.28 in data set [2] and -5.32 in data set [3].

Compound `CC1NC=CN1` registered a pKa in data set [1] of 7.86.

As to `C[C@]12CC[C@@H](O)C[C@H]1CC[C@@H]1[C@@H]2CC[C@]2(C)C(=O)CC[C@@H]12`, the Log 1/K was -5.22 in data set [2] and -6.15 in data set [3].

In data set [1], `ClC1NC=CN1` returned a pKa of 3.55.

Take `C[C@]12CC[C@H](O)CC1=CC[C@@H]1[C@@H]2CC[C@]2(C)C(=O)CC[C@@H]12`: the values for the Log 1/K in data set [2] and in data set [3] were -5 and -7.82, respectively.

In the case of `C1=CNCN1`, the pKa in data set [1] worked out at 6.99.

Regarding `C[C@]12C[C@H](O)[C@H]3[C@@H](CCC4=CC(=O)CC[C@@]43C)[C@@H]1CC[C@@H]2C(=O)CO`, the Log 1/K in data set [2] was -7.88; in data set [3] it was -6.34.

For the compound `CCCCc1cc2c(cn1)[nH]c1ccccc12`, the Log 1/K in data set [2] is -5; in data set [3], -9.11.

`CN1C=CNC1F` (stereo unspecified): the pKa in data set [1] worked out at 2.3.

`C[C@]12CC[C@H]3[C@@H](CCC4=CC(=O)CC[C@@]43C)[C@@H]1CC[C@@H]2C(=O)CO`: the results for the Log 1/K in data set [2] and in data set [3] were -7.65 and -7.38, respectively.

For `CCC1NC=CN1`, in data set [1], the pKa came to 7.73.

In data set [1], `CSC1NC=CN1` returned a pKa of 5.95.

For the compound `C[C@]12CCC(=O)C=C1CC[C@@H]1[C@@H]2CC[C@@]2(C)[C@H]1CC[C@]2(O)C(=O)CO`, the Log 1/K in data set [2] is -7.88; in data set [3], -7.2.

Consider `C[C@]12CCC3C4=C(CCC3C1CCC2=O)CC(=O)C=C4` (stereo partly specified), for which the values for the Log 1/K in data set [2] and in data set [3] were -5 and -8.18, respectively.

As to `CC(=O)[C@@]1(O)CC[C@H]2[C@@H]3CCC4=CC(=O)CC[C@]4(C)[C@H]3CC[C@@]21C`, the Log 1/K in data set [2] is -7.74; in data set [3], -7.

As to `CC(=O)[C@H]1CC[C@H]2[C@@H]3CCC4=CC(=O)CC[C@]4(C)[C@H]3CC[C@]12C`, the Log 1/K in data set [2] was -7.38; in data set [3], -6.94.

On to `CN1C=CNC1N` (stereo unspecified), for which the pKa in data set [1] was determined as 8.54.

For `CN1C=CNC1Br` (stereo unspecified), the pKa in data set [1] turned out to be 3.82.

In turn, `CN1CCc2c([nH]c3ccccc23)C1` had a Relative activity in data set [4] of 2.

Take `BrC1NC=CN1`: the pKa in data set [1] was found to be 3.79.

On to `CN1CC=C(c2ccccc2Cl)CC1`, for which the Relative activity in data set [4] is recorded as 3.

Compound `COc1ccccc1C1=CCN(C)CC1` gave a Relative activity in data set [4] of 3.

Regarding `CN1CC=C(c2ccccc2F)CC1`, the Relative activity in data set [4] was 3.

`OCCN1CC=C(c2ccccc2)CC1` returned a Relative activity in data set [4] of 2.

In turn, `CN1CCC(c2ccccc2)CC1` yielded a Relative activity in data set [4] of 1.
